This note sets out measurements from the supplement of paper PMC10307832.

Assay in all cases: relative viability (nuclei count vs DMSO), 5 days (fraction); higher = more cells survive
Compound in the experiment “Nelarabine + Pictilisib”: COc1nc(N)nc2c1ncn2[C@@H]1O[C@H](CO)[C@@H](O)[C@@H]1O [Nelarabine] + CS(=O)(=O)N1CCN(Cc2cc3nc(-c4cccc5[nH]ncc45)nc(N4CCOCC4)c3s2)CC1 [Pictilisib] (partner 1 µM)
The procedure, abridged: (§1)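 Medians of duplicate plates are given as relative viability. That measure is the nuclei count in treated wells divided by the count in vehicle wells. Counts were taken on 4× images of lung cancer cell lines in 1536-well plates, 5 days after pin-tool dosing the day after seeding with one drug alone or a fixed anchor-drug dose plus five library-drug doses (not always all listed) in √10 steps.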

Compound in the experiment “Nelarabine + Pemetrexed”: COc1nc(N)nc2c1ncn2[C@@H]1O[C@H](CO)[C@@H](O)[C@@H]1O [Nelarabine] + Nc1nc2[nH]cc(CCc3ccc(C(=O)N[C@@H](CCC(=O)O)C(=O)O)cc3)c2c(=O)[nH]1 [Pemetrexed] (partner 0.2 µM)
An outline of the steps: as §1

Compound in experiment [1]: C=CCn1c(=O)c2cnc(Nc3ccc(N4CCN(C)CC4)cc3)nc2n1-c1cccc(C(C)(C)O)n1 [Adavosertib] + CC(=O)c1c(C)c2cnc(Nc3ccc(N4CCNCC4)cn3)nc2n(C2CCCC2)c1=O [Palbociclib] (partner 0.5 µM)
The procedure, abridged: as §1

Compound in the experiment “Adavosertib + Alpelisib”: C=CCn1c(=O)c2cnc(Nc3ccc(N4CCN(C)CC4)cc3)nc2n1-c1cccc(C(C)(C)O)n1 [Adavosertib] + Cc1nc(NC(=O)N2CCC[C@H]2C(N)=O)sc1-c1ccnc(C(C)(C)C(F)(F)F)c1 [Alpelisib] (partner 2 µM)
An outline of the steps:
as §1

In the case of NCI-H838, the relative viability with Nelarabine + Pictilisib (first compound 0.01 µM) was 0.481; in the experiment with Nelarabine + Pictilisib (first compound 0.03162 µM), 0.331; in the experiment with Nelarabine + Pictilisib (first compound 0.1 µM) it was 0.428; in the experiment with Nelarabine + Pictilisib (first compound 0.3162 µM) it was 0.474; with Nelarabine + Pictilisib (first compound 1 µM), 0.438; with Nelarabine + Pemetrexed (first compound 0.01 µM) it was 0.268. Moreover, the relative viability with Nelarabine + Pemetrexed (first compound 0.03162 µM) came out at 0.252; in the experiment with Nelarabine + Pemetrexed (first compound 0.1 µM), 0.287; with Nelarabine + Pemetrexed (first compound 0.3162 µM), 0.278; with Nelarabine + Pemetrexed (first compound 1 µM) it was 0.282; in experiment [1] (first compound 0.01 µM), 0.232; in experiment [1] (first compound 0.03162 µM), 0.211. The relative viability in experiment [1] (first compound 0.1 µM) was found to be 0.224; in experiment [1] (first compound 0.3162 µM), 0.213; in the experiment with Adavosertib + Alpelisib (first compound 0.01 µM), 1.01; with Adavosertib + Alpelisib (first compound 0.03162 µM), 1.01; with Adavosertib + Alpelisib (first compound 0.1 µM), 0.996; with Adavosertib + Alpelisib (first compound 0.3162 µM), 1.08.
